Measured values from US4416885A, “Use of isopropylaminopyrimidine in the chemotherapy of muscular dystrophy, myopathy and myotonia” (priority 1982, dated 1983).

What was measured:
Dystrophic monocytes = test: Effect on human monocytes in culture (flat cells), dystrophic; assay type: cell-based; details: dystrophic monocytes + IAPP, six individuals, cultured 5-7 days; without IAPP 36.2%; preliminary
normal chickens 412 = test: Experiment 4, flip test (25 flips), normal chickens; assay type: in vivo, chicken
Procedure: (§1) All chickens were injected with 50 mg/Kg IAPP and weighed approximately every second or third day.
(§2) B, C, D: Experimental-injected with 50 mg/Kg IAPP

Carrier monocytes = test: Effect on human monocytes in culture (flat cells), carrier; assay type: cell-based; details: carrier monocytes + IAPP, six individuals, cultured 5-7 days; without IAPP 35.3%; preliminary
Text: In the experiments adding IAPP to such cultures, the preliminary results were as follows: […]

[1] = system: normal 412 muscle explants; test: Microtubule complexes in muscle explants of injected normal chickens; assay type: in vivo, chicken
Text: Essentially, these experiments were divided into three subgroups, taken from the previous Table:
413A, 413B, 412A, 412B: All were sacrificed after 4 injections and muscle explants placed in culture.
413C, 412C: All were sacrificed after 8 injections and muscle explants were placed in culture.
413D, 412D: All were sacrificed after 10 injections and muscle explants placed in culture.
All explants were placed in CMRL culture medium containing 5% horse serum, 15% fetal bovine serum and 1% antibiotics and allowed to grow for 5-7 days before being fixed and observed for the presence or absence of microtubules. No IAPP was added to the culture medium during the 5-7 days in culture.

[2] = system: plasma PK (pyruvate kinase); test: Plasma PK; assay type: in vivo, chicken; details: 300 mg/Kg i.p. three times weekly for 30 days, day 28 ex ovo
[3] = system: dystrophic New Hampshire chickens, line 413; test: Flip test (flip number FN, out of five attempts); assay type: in vivo, chicken
Procedure: The compound IAPP was tested on dystrophic New Hampshire chickens, line 413, and Imperial College (London, England) sub-line of the original Davis, University of California strain. The chickens are homozygous for muscular dystrophy, the disease appearing with 100% incidence.
The animal is placed on its back in the supine position. The number of times it is able to rise, out of five attempts, is known as the flip number (FN). The normal chicken invariably scores 5 (out of 5 attempts), whereas in an untreated dystrophic chicken, the number declines to zero in 6-8 weeks. The test is performed once every […], seven days; more frequent assessment introduces an exercise factor and is not recommended.
(§3) The drug was administered daily in water, injected intra-peritoneally, the amount being adjusted on a weekly basis according to the animal's weight.
Finally, oral therapy with IAPP was undertaken at gradually increasing dosages up to 1 g/Kg/day. The parameters (physical, biochemical and histological) measured previously were again used to test the efficacy of the drug; five different dosages were used orally, each being given for 30-60 days, daily (Tables VII-XI). A total of 75 animals were treated in the current study with IAPP and 70 control animals were used.

[4] = system: dystrophic New Hampshire chickens, line 413; test: Toxicity (weight change, other symptoms) in dystrophic chickens; assay type: in vivo, chicken
Procedure: Weight measurements are taken weekly, weight loss, diarrhea or any other symptoms are noted. No drugs have yet been described for dystrophy with a beneficial effect without an accompanying weight loss.
as §3

dystrophic chickens 413 = test: Experiment 4, weight of dystrophic chickens injected with IAPP; assay type: in vivo, chicken; details: for Weight: 50 mg/Kg
Procedure: as §1
A: Control-injected with PBS
as §2

CC(C)Nc1ncccn1.O=P(O)(O)O [IAPP, 2-isopropylaminopyrimidine orthophosphate]
% Flat Cells (Dystrophic monocytes): 45.1%
Fatigue in flip test (normal chickens 412; 412D, day 25, 50 mg/Kg): did not fatigue
Flip test outcome (normal chickens 412; normal drug injected chickens, 50 mg/Kg): able to pass the flip test
% Flat Cells (Carrier monocytes): 50.0%
% Full Complexes Microtubules ([1]; 412B, Subgroup A, after 4 injections of 50 mg/Kg, 412A control 86%): 73%
% Full Complexes Microtubules ([1]; 412C, Subgroup B, after 8 injections of 50 mg/Kg): 76%
% Full Complexes Microtubules ([1]; 412D, Subgroup C, after 10 injections of 50 mg/Kg): 80%
PK [2]: 499
FN (out of 5 attempts), treated ([3]; 200 mg/Kg i.p. daily for 30 days, day 28 ex ovo, control 4.9): 5.0
FN (out of 5 attempts), treated ([3]; 200 mg/Kg i.p. daily for 30 days, day 45 ex ovo, control 3.5): 3.3
FN (out of 5 attempts), treated ([3]; 200 mg/Kg i.p. daily for 30 days, day 84 ex ovo, control 0.7): 1.4
Mean flip number ([3]; 200 mg/Kg i.p., further 56 days after injections ceased): slightly improved
FN (out of 5 attempts), treated ([3]; 300 mg/Kg i.p. daily for 30 days, day 28 ex ovo, control 4.9): 4.5
FN (out of 5 attempts), treated ([3]; 300 mg/Kg i.p. daily for 30 days, day 45 ex ovo, control 3.5): 2.3
FN (out of 5 attempts), treated ([3]; 300 mg/Kg i.p. daily for 30 days, day 84 ex ovo, control 0.7): 0.1
FN (out of 5 attempts), treated ([3]; 300 mg/Kg i.p. three times weekly for 30 days, day 28 ex ovo, control 4.9): 4.5
FN (out of 5 attempts), treated ([3]; 300 mg/Kg i.p. three times weekly for 30 days, day 45 ex ovo, control 3.5): 2.7
FN (out of 5 attempts), treated ([3]; 300 mg/Kg i.p. three times weekly for 30 days, day 84 ex ovo, control 0.7): 0.6
FN Treated (out of 5 attempts) ([3]; Exp. 2, 40 mg/Kg i.p. daily, day 7-13, control 4.5): 4.9
FN Treated (out of 5 attempts) ([3]; Exp. 2, 40 mg/Kg i.p. daily, day 14-20, control 4.8): 5.0
FN Treated (out of 5 attempts) ([3]; Exp. 2, 40 mg/Kg i.p. daily, day 35-41, control 2.8): 5.0
FN Treated (out of 5 attempts) ([3]; Exp. 2, 40 mg/Kg i.p. daily, day 49-55, control 2.0): 4.5
FN Treated (out of 5 attempts) ([3]; Exp. 2, 40 mg/Kg i.p. daily, day 56-62, control 1.4): 3.8
FN Treated (out of 5 attempts) ([3]; Exp. 2, 40 mg/Kg i.p. daily, day 63-71, control 0.9): 2.3
FN Treated (out of 5 attempts) ([3]; Exp. 3, 70 mg/Kg i.p. daily, day 14-20, control 5): 5
FN Treated (out of 5 attempts) ([3]; Exp. 3, 70 mg/Kg i.p. daily, day 21-27, control 4.8): 5
FN Treated (out of 5 attempts) ([3]; Exp. 3, 70 mg/Kg i.p. daily, day 28-34, control 5): 5
FN (out of 5 attempts), treated ([3]; Table VII, oral 200 mg/Kg, 60 days, day 28 ex ovo, control 5.0): 4.1
FN (out of 5 attempts), treated ([3]; Table VII, oral 200 mg/Kg, 60 days, day 35 ex ovo, control 4.4): 3.6
FN (out of 5 attempts), treated ([3]; Table VII, oral 200 mg/Kg, 60 days, day 45 ex ovo, control 3.2): 2.4
FN (out of 5 attempts), treated ([3]; Table VII, oral 200 mg/Kg, 60 days, day 60 ex ovo, control 2.8): 1.8
FN (out of 5 attempts), treated ([3]; oral 300 mg/Kg daily, day 28 ex ovo, control 4.8): 4.7
FN (out of 5 attempts), treated ([3]; oral 300 mg/Kg daily, day 35 ex ovo, control 4.7): 4.4
FN (out of 5 attempts), treated ([3]; oral 450 mg/Kg daily for 45 days, day 28 ex ovo, control 5.0): 5.0
FN (out of 5 attempts), treated ([3]; oral 450 mg/Kg daily for 45 days, day 35 ex ovo, control 3.6): 4.8
FN (out of 5 attempts), treated ([3]; oral 450 mg/Kg daily for 45 days, day 45 ex ovo, control 1.7): 2
FN (out of 5 attempts), treated ([3]; oral 450 mg/Kg daily for 45 days, day 50 ex ovo, control 1.4): 1
FN (out of 5 attempts), treated ([3]; oral 600 mg/Kg daily, day 28 ex ovo, control 5.0): 5.0
FN (out of 5 attempts), treated ([3]; oral 600 mg/Kg daily, day 35 ex ovo, control 3.6): 4.3
FN (out of 5 attempts), treated ([3]; oral 600 mg/Kg daily, day 45 ex ovo, control 1.7): 2.7
FN (out of 5 attempts), treated ([3]; oral 600 mg/Kg daily, day 50 ex ovo, control 1.4): 2.3
FN (out of 5 attempts), treated ([3]; oral 1 g/Kg daily, day 28 ex ovo, control 1.7): 3.5
Birds able to rise from supine 5 times out of 5 attempts ([3]; oral 1 g/Kg daily, first four weeks, dystrophic controls 20%): Fifty
Weight loss (after 30 days' treatment) ([4]; 200 mg/Kg i.p. daily, level at which it became significant): twenty
% Weight Change vs untreated dystrophic controls ([4]; Exp. 2, 40 mg/Kg i.p. daily, day 7-13): -0.04%
% Weight Change vs untreated dystrophic controls ([4]; Exp. 2, 40 mg/Kg i.p. daily, day 14-20): -0.07%
% Weight Change vs untreated dystrophic controls ([4]; Exp. 2, 40 mg/Kg i.p. daily, day 21-27): -0.07%
% Weight Change vs untreated dystrophic controls ([4]; Exp. 2, 40 mg/Kg i.p. daily, day 28-34): -0.15%
% Weight Change vs untreated dystrophic controls ([4]; Exp. 2, 40 mg/Kg i.p. daily, day 35-41): -0.08%
% Weight Change vs untreated dystrophic controls ([4]; Exp. 2, 40 mg/Kg i.p. daily, day 42-48): -0.04%
% Weight Change vs untreated dystrophic controls ([4]; Exp. 2, 40 mg/Kg i.p. daily, day 49-55): -0.04%
% Weight Change vs untreated dystrophic controls ([4]; Exp. 2, 40 mg/Kg i.p. daily, day 56-62): -0.05%
% Weight Change vs untreated dystrophic controls ([4]; Exp. 2, 40 mg/Kg i.p. daily, day 63-71): -0.01%
Toxicity as evidenced by weight loss ([4]; Exp. 3, 70 mg/Kg): detectable toxicity as evidenced by weight loss, but this is still moderate
% Weight Change vs untreated dystrophic controls ([4]; Exp. 3, 70 mg/Kg i.p. daily, day 7-13): 0%
% Weight Change vs untreated dystrophic controls ([4]; Exp. 3, 70 mg/Kg i.p. daily, day 14-20): -2%
% Weight Change vs untreated dystrophic controls ([4]; Exp. 3, 70 mg/Kg i.p. daily, day 21-27): -3%
% Weight Change vs untreated dystrophic controls ([4]; Exp. 3, 70 mg/Kg i.p. daily, day 28-34): -9%
Maximum Weight Loss ([4]; Table VII, oral 200 mg/Kg, 60 days): 3%
Weight loss / toxic symptoms ([4]; initial single injection 100 mg/Kg, over 7 days): no weight loss over 7 days, nor any other toxic symptoms
Toxic side effect (dystrophic chickens 413; Exp. 4, 50 mg/Kg injected, normal and dystrophic chickens): There did not appear to be a toxic side effect
Weight (dystrophic chickens 413; Exp. 4, 413B, day 1): 48.3 GRAMS
Weight (dystrophic chickens 413; Exp. 4, 413B, day 4): 51.2 GRAMS
Weight (dystrophic chickens 413; Exp. 4, 413B, day 7): 56.7 GRAMS
Weight (dystrophic chickens 413; Exp. 4, 413B, day 9): 58.1 GRAMS
Weight (dystrophic chickens 413; Exp. 4, 413C, day 1): 36.9 GRAMS
Weight (dystrophic chickens 413; Exp. 4, 413C, day 4): 44.4 GRAMS
Weight (dystrophic chickens 413; Exp. 4, 413C, day 7): 49.9 GRAMS
Weight (dystrophic chickens 413; Exp. 4, 413C, day 9): 45.2 GRAMS
Weight (dystrophic chickens 413; Exp. 4, 413C, day 11): 53.2 GRAMS
Weight (dystrophic chickens 413; Exp. 4, 413C, day 14): 77.4 GRAMS
Weight (dystrophic chickens 413; Exp. 4, 413C, day 16): 90.5 GRAMS
Weight (dystrophic chickens 413; Exp. 4, 413C, day 17): 104.8 GRAMS
Weight (dystrophic chickens 413; Exp. 4, 413D, day 1): 44.5 GRAMS
Weight (dystrophic chickens 413; Exp. 4, 413D, day 4): 51.2 GRAMS
Weight (dystrophic chickens 413; Exp. 4, 413D, day 7): 59.8 GRAMS
Weight (dystrophic chickens 413; Exp. 4, 413D, day 9): 56.5 GRAMS
Weight (dystrophic chickens 413; Exp. 4, 413D, day 11): 65.4 GRAMS
Weight (dystrophic chickens 413; Exp. 4, 413D, day 14): 93.7 GRAMS
Weight (dystrophic chickens 413; Exp. 4, 413D, day 16): 115.1 GRAMS
Weight (dystrophic chickens 413; Exp. 4, 413D, day 20): 161.3 GRAMS
Weight (dystrophic chickens 413; Exp. 4, 413D, day 22): 210.2 GRAMS
Weight (dystrophic chickens 413; Exp. 4, 413D, day 25): 240.7 GRAMS
